In the assay the target is BTK (Homo sapiens (Human), UniProt Q06187). Put plainly: In vitro BTK kinase assay: BTK-POLYGAT-LS ASSAY. The assay is classed as biochemical. The note with it: read-out: IC50 (10 uM ATP), polyGAT 100 nM, BTK 0.25 nM.

These results are taken from patent US10577374B2, “Bruton's tyrosine kinase inhibitors” (priority 2009, dated 2020).

Chain of BTK (Q06187 whole entry): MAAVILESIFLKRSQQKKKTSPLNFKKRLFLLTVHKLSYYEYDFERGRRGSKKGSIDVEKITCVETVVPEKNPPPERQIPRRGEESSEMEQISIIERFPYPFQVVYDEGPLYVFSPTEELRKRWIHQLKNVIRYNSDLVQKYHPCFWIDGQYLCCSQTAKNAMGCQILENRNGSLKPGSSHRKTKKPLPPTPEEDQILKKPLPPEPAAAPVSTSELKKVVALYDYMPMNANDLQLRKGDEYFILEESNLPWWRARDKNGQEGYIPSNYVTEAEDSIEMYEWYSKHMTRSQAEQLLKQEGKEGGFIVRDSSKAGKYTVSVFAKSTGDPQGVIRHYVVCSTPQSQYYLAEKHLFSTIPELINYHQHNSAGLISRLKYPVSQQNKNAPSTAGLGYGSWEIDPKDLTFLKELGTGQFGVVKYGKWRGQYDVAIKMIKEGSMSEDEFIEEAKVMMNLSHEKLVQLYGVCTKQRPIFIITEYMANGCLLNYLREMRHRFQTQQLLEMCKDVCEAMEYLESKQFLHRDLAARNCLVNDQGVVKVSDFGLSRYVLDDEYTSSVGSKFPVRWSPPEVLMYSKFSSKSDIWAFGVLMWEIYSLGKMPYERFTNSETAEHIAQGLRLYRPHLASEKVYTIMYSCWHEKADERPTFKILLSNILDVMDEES

With “1-(3-(1-(methylsulfonyl)-4-(7H-pyrrolo[2,3-d]pyrimidin-4-yl)piperazin-2-yl)phenyl)-3-phenylurea [compound 128]”, the IC50 was greater than 10 µM.

One may read the IC50 as the concentration needed to halve the response being measured.
